Settings: K2CO3 5 mM, CH3CN:water (4:1), 1 hour

Compound: O=[N+]([O-])c1ccc(S(=O)(=O)Oc2ccccc2)c([N+](=O)[O-])c1 [probe 1, phenyl 2,4-dinitrobenzenesulfonate]
- CD response with other L-amino acids (phenylalanine, alanine, serine, tyrosine) versus L-Cys (probe 2.50 mM, amino acid 1.25 mM): remained CD silent with the exception of the cysteine solution
- CD response with biothiols L-homocysteine and L-glutathione (probe 2.5 mM, biothiol 1.25 mM): no induction of a CD signal

— patent US11852633B2 (priority 2017, dated 2023)
